The test system of assay [1] is automatic TBARS reproduction of the rat brain homogenate. The experiment in a line: Measurement of Anti-oxidation Function (inhibition of automatic TBARS reproduction of rat brain homogenate). Type of assay: biochemical. The settings on record: inhibition of TBARS in rat brain homogenate.
A further assay concerns the target T1, HMG-CoA Reductase (Rattus norvegicus, UniProt P51639).
T1 construct: from tissue
T1 sequence (P51639 1-887): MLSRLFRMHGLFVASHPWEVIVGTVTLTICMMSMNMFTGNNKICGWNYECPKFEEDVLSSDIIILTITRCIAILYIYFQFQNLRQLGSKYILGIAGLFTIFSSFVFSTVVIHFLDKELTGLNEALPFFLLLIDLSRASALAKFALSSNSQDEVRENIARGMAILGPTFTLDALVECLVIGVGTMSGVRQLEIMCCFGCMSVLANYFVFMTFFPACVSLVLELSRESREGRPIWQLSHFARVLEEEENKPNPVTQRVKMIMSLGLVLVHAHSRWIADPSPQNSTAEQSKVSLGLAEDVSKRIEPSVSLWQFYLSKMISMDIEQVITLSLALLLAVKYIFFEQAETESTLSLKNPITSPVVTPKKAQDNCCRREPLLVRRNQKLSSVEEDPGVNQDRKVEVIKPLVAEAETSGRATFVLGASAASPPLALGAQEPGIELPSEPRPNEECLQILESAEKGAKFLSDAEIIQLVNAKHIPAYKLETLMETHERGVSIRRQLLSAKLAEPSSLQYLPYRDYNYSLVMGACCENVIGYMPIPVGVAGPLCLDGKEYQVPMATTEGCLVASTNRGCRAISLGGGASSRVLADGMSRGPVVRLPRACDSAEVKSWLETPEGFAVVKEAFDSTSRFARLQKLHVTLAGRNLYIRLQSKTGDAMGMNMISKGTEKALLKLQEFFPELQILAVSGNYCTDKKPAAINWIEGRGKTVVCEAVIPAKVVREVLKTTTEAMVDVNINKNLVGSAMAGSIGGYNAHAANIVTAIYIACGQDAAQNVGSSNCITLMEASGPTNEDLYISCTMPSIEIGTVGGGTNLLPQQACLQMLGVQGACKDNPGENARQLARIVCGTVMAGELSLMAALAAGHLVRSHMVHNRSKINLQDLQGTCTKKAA
The experiment in a line: Measurement of Inhibitory Activity on HMG-CoA Reductase (activity ratio of biosynthesis of cholesterol). It is filed as biochemical.

Assay [2] relates to total serum cholesterol in model rats with Triton-induced hyperlipemia. The experiment in a line: Measurement of Reduction in Cholesterol Value (total serum cholesterol, Triton-induced hyperlipemia model rats). Type of assay: in vivo, rat. The settings on record: value of Compactin (ML-236B) as reference (100).
[3] abbreviates: Relative value when the value of Compactin is 100.

Each structure is given as a SMILES string. Like-named read-outs stand apart in the source and are kept apart here.

As usually defined, the IC50 is the concentration at which inhibition is half-maximal. Low values mean inhibition by little substance, high ones a need for much substance. Molecule `Cc1c(CC[C@H]2C[C@H](O)CC(=O)O2)c2c(c(C)c1N1CCc3ccccc3C1)CC(C)(C)O2` (racemic) [Compound No. 24, trans-(±)-6-[2,3-dihydro-5-(1,2,3,4-tetrahydroisoquinolin-2-yl)-2,2,4,6-tetramethylbenzo[b]furan-7-yl]ethyl-4-hydroxytetrahydropyran-2-one] came in with an IC50 in assay [1] of 1.63 µM.
For the molecule `Cc1c(CCC(O)CC(O)CC(=O)O)c2c(c(C)c1-n1cc3ccccc3c1)CC(C)(C)O2` (racemic) [Compound No. 94, sodium 7-[2,3-dihydro-5-isoindolyl-2,2,4,6-tetramethylbenzo[b]furan-7-yl]-3,5-dihydroxyheptanoate], at HMG-CoA Reductase (setting [3]), the “Activity ratio of Biosynthesis of Cholesterol, Reactive Inhibitory Potency” value (“Activity ratio … Reactive Inhibitory Potency” below) is recorded as 1550.
On the same count and under the same terms, in the case of `Cc1c(CC[C@@H]2C[C@@H](O)CC(=O)O2)c2c(c(C)c1-n1cc3ccccc3c1)CC(C)(C)O2` (relative stereo) [Compound No. 14, trans-(±)-6-[2,3-dihydro-5-isoindolyl-2,2,4,6-tetramethylbenzo[b]furan-7-yl]ethyl-4-hydroxytetrahydropyran-2-one] it was 250.
With `Cc1c(CCC(O)CC(O)CC(=O)O)c2c(c(C)c1N1Cc3ccccc3C1)CC(C)(C)O2` (stereo not shown) [Compound No. 12, 7-[2,3-dihydro-5-(isoindolin-2-yl)-2,2,4,6-tetramethylbenzo[b]furan-7-yl]3,5-dihydroxyheptoic acid], the “Activity ratio … Reactive Inhibitory Potency” value on HMG-CoA Reductase (setting [3]) was determined as 1500. In addition, the “Reduction of Cholesterol Value” in assay [2] is reported as 330. Also, the IC50 in assay [1] is 1.58 µM.
Consider `Cc1c(CC[C@H]2C[C@H](O)CC(=O)O2)c2c(c(C)c1N1CCCC1)CC(C)(C)O2` (racemic) [Compound No. 17, trans-(±)-6-[2,3-dihydro-2,2,4,6-tetramethyl-5-(pyrrolidin-1-yl)benzo[b]furan-7-yl]ethyl-4-hydroxytetrahydropyran-2-one], for which 1.49 µM corresponded to half-maximal inhibition in assay [1] (IC50).
Consider `Cc1c(CCC(O)CC(O)CC(=O)[O-])c2c(c(C)c1N1Cc3ccccc3C1)CC(C)(C)O2.[Na+]` (stereo not shown) [Compound No. 15, sodium 7-[2,3-dihydro-5-(isoindolin-2-yl)-2,2,4,6-tetramethylbenzo[b]furan-7-yl]-3,5-dihydroxyheptanoate], for which the “Activity ratio … Reactive Inhibitory Potency” value on HMG-CoA Reductase was 830. For the same molecule, the “Reduction of Cholesterol Value” in assay [2] was 320. Moreover, the IC50 in assay [1] was 1.67 µM.
Consider `CC(C)c1c(N2Cc3ccccc3C2)cc2c(c1CCC(O)CC(O)CC(=O)[O-])OC(C)(C)C2.[Na+]` (stereo not shown) [Compound No. 76, sodium 7-[2,3-dihydro-5-(isoindolin-2-yl)-2,2-dimethyl-6-(propan-2-yl)benzo[b]furan-7-yl]-3,5-dihydroxyheptanoate], for which the “Activity ratio … Reactive Inhibitory Potency” value on HMG-CoA Reductase was 2730. The molecule also came in with an IC50 in assay [1] of 6.5 µM.
In assay [1], `CC1(C)Cc2cc(N3Cc4ccccc4C3)c(C(C)(C)C)c(CCC(O)CC(O)CC(=O)O)c2O1` (stereo not shown) [Compound No. 93, sodium 7-[6-(t-butyl)-2,3-dihydro-5-(isoindolin-2-yl)-2,2-dimethylbenzo[b]furan-7-yl]-3,5-dihydroxyheptanoate] registered an IC50 of 2 µM.
On to `Cc1c(CC[C@H]2C[C@H](O)CC(=O)O2)c2c(c(C)c1N1Cc3ccccc3C1)CC(C)(C)O2` (racemic) [Compound No. 13, trans-(±)-6-[2,3-dihydro-5-(isoindolin-2-yl)-2,2,4,6-tetramethylbenzo[b]furan-7-yl]ethyl-4-hydroxytetrahydropyran-2-one], for which, on HMG-CoA Reductase (setting [3]), the “Activity ratio … Reactive Inhibitory Potency” value turned out to be 250. The “Reduction of Cholesterol Value” in assay [2] is 180. In addition, the IC50 in assay [1] is 1.44 µM.
Regarding `Cc1c(N)c(C)c2c(c1CC[C@H]1C[C@H](O)CC(=O)O1)OC(C)(C)C2` (racemic) [Compound No. 10, trans-(±)-6-[5-amino-2,3-dihydro-2,2,4,6-tetramethylbenzo[b]furan-7-yl]ethyl-4-hydroxytetrahydropyran-2-one], the IC50 in assay [1] was 2.75 µM.
`Cc1c2c(c(CC[C@H]3C[C@H](O)CC(=O)O3)c(C(C)C)c1NCc1ccccc1)OC(C)(C)C2` (racemic) [Compound No. 43, trans-(±)-6-[5-benzylamino-2,3-dihydro-2,2,4-trimethyl-6-(propan-2-yl)benzo[b]furan-7-yl]ethyl-4-hydroxytetrahydropyran-2-one]: the “Activity ratio … Reactive Inhibitory Potency” value at HMG-CoA Reductase (setting [3]) worked out at 170.
Take `CC[C@H](C)C(=O)O[C@H]1CCC=C2C=C[C@H](C)[C@H](CC[C@@H]3C[C@@H](O)CC(=O)O3)[C@H]21` [Compactin, reference compound]: the “Reduction of Cholesterol Value” in assay [2] is on record as 100.

The record behind these values is patent publication US5266707A, “3,5-dihydroxyheptanoic acid derivatives” (Fujirebio Inc., priority 1991, dated 1993).
